Experimental findings from US7851617B2, “Indole derivatives” (Mitsubishi Tanabe Pharma Corporation, priority 2006, dated 2010) are described below.

Molecules are shown by their SMILES. Like-named read-outs stand apart in the source and are kept apart here.

What is called IC50 is the midpoint of a concentration-inhibition curve.

One assay concerns the target T1, human SGLT2 (Homo sapiens, UniProt P31639).
T1 construct: expressed in transfected cells; host or cells: CHOK1 cells (selected with Geneticin)
T1 sequence (P31639 1-672): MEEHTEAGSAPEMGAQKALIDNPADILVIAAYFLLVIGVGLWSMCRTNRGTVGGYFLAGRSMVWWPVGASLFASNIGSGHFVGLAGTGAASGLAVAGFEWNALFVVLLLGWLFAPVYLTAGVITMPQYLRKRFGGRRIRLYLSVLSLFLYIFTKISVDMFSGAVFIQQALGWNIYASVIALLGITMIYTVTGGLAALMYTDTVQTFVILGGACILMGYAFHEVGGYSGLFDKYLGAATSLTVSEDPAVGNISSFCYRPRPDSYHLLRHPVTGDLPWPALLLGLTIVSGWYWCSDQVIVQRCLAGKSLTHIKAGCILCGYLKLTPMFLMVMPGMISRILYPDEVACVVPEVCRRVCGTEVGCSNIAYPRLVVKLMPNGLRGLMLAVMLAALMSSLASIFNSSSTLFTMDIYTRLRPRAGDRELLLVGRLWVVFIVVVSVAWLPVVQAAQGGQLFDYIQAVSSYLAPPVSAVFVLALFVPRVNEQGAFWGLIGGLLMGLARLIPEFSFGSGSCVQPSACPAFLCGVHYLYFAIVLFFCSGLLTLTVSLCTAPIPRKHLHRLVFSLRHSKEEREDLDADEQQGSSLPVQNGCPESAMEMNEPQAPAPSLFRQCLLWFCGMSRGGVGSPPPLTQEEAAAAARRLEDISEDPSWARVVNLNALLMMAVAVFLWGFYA
Kind of assay: Assay for SGLT2 inhibition (14C-AMG uptake). The assay is classed as cell-based. Here is the method:
Compounds described in the above examples were used for the SGLT2 inhibition assay. CHOK1 cells expressing human SGLT2 were seeded in 24-well plates at a density of 400,000 cells/well in F-12 nutrient mixture (Ham's F-12) containing 10% fetal bovine serum, 400 μg/ml Geneticin, 50 units/ml sodium penicillin G (Gibco-BRL) and 50 μg/ml streptomycin sulfate. After 2 days of culture at 37° C. in a humidified atmosphere containing 5% CO2, cells were washed once with the assay buffer (137 mM NaCl, 5 mM KCl, 1 mM CaCl2, 1 mM MgCl2, 50 mM Hepes, and 20 mM Tris, pH 7.4) and incubated with 250 μl of the buffer containing test compounds for 10 min at 37° C. Test compounds were dissolved in DMSO. The final concentration of DMSO was 0.5%. The transport reaction was initiated by addition of 50 μl [^14C]-methyl-α-D-glucopyranoside (^14C-AMG) solution (final concentration, 0.5 mM). After incubation for 2 hours at 37° C., the uptake was stopped by aspiration of the incubation mixture, the cells were washed three times with ice-cold PBS. Then, cells were solubilized with 0.3 N NaOH and aliquots were taken for determination of radioactivity by a liquid scintillation counter. Nonspecific AMG uptake was defined as that which occurred in the presence of 100 μM of phlorizin, a specific inhibitor of sodium-dependent glucose cotransporter. Specific uptake was normalized for the protein concentrations measured by the method of Bradford. The 50% inhibitory concentration (IC50) values were calculated from dose-response curves by least square method.

Another assay deals with Sprague-Dawley (SD) rats. Kind of assay: Urinary glucose excretion test in rats. The assay is classed as in vivo, rat. To be noted: male SD rats, 30 mg/kg by oral gavage, urine collected for 24 hours, daily amount of glucose excreted per individual. Here is the method: Compounds described in the above examples were used for the Urinary glucose excretion test in rats.
6-week-old male Sprague-Dawley (SD) rats were housed in individual metabolic cages with free access to food and water from 2 days prior to the experiment. On the morning of the experiment, rats were administered vehicle (0.2% carboxymethyl cellulose solution containing 0.2% Tween80) or test compounds (30 mg/kg) by oral gavage at a volume of 10 ml/kg. Then, urine of the rat was collected for 24 hours, and the urine volume was measured. Subsequently, the glucose concentration in urine was quantified using the enzymatic assay kit and the daily amount of glucose excreted in urine per individual was calculated.

Where [1] appears, read: CHOK1 cells expressing human SGLT2, 14C-AMG uptake, 2 hours at 37° C., read-out: IC50.

On to `OC[C@H]1O[C@@H](n2cc(Cc3ccc(C4CC4)cc3)c3c(F)cccc32)[C@H](O)[C@@H](O)[C@@H]1O` [Example 1, 3-(4-Cyclopropylphenylmethyl)-4-fluoro-1-(β-D-gluco-pyranosyl)indole], for which the 50% inhibitory concentration (IC50) on human SGLT2 (setting [1]) stood at 1.9 nM. Besides, in the assay on Sprague-Dawley (SD) rats, the Urinary glucose entry is given as “B (2400 mg>B≧2000 mg)”.

Compound `OC[C@H]1O[C@@H](n2cc(Cc3ccc(C4CC4)cc3)c3c(Cl)cccc32)[C@H](O)[C@@H](O)[C@@H]1O` [Example 2, 4-Chloro-3-(4-cyclopropylphenyl-methyl)-1-(β-D-glucopyranosyl)indole] displayed a half-maximal inhibitory concentration (IC50) against human SGLT2 of 2.3 nM. In addition, the Urinary glucose entry in the assay with Sprague-Dawley (SD) rats is given as “A (A≧2400 mg)”.

As for `OC[C@H]1O[C@@H](n2cc(Cc3ccc(C4CC4)cc3)c3c(F)cc(F)cc32)[C@H](O)[C@@H](O)[C@@H]1O` [Example 3, 3-(4-Cyclopropylphenylmethyl)-4,6-difluoro-1-(β-D-gluco-pyranosyl) indole], the concentration for half-maximal inhibition (IC50) on human SGLT2 (setting [1]) turned out to be 2.8 nM. Moreover, the Urinary glucose result in the assay on Sprague-Dawley (SD) rats is reported as “B (2400 mg>B≧2000 mg)”.

As to `OC[C@H]1O[C@@H](n2cc(Cc3ccc(C4CC4)cc3)c3c(Cl)cc(F)cc32)[C@H](O)[C@@H](O)[C@@H]1O` [Example 4, 4-Chloro-3-(4-cyclopropylphenylmethyl)-6-fluoro-1-(β-D-gluco-pyranosyl) indole], at human SGLT2 (setting [1]), the IC50 is 3.6 nM. For the same compound, the Urinary glucose result in the assay with Sprague-Dawley (SD) rats was “C (2000 mg>C)”.
